Laboratory results as given in PubChem BioAssay (NCI).
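96-well plates; 48 h exposure; 5 concentrations. Endpoints by linear interpolation between flanking doses. Not reached: highest tested concentration assigned. The concentration for 50% growth inhibition is given as GI50. At the TGI there is no net growth.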

How the values were obtained:
Experiment in all cases: NCI tumour cell line growth inhibition, 48 h
786-0 renal = system: 786-0 renal
SR leukemia = system: SR leukemia
COLO 205 colon = system: COLO 205 colon
SK-MEL-28 melanoma = system: SK-MEL-28 melanoma
MDA-MB-435 = system: MDA-MB-435
MCF7 breast = system: MCF7 breast
SNB-75 CNS = system: SNB-75 CNS
SK-MEL-5 melanoma = system: SK-MEL-5 melanoma
HCC-2998 colon = system: HCC-2998 colon
NCI/ADR-RES ovarian = system: NCI/ADR-RES ovarian
U251 CNS = system: U251 CNS
MALME-3M melanoma = system: MALME-3M melanoma
TK-10 renal = system: TK-10 renal
MOLT-4 leukemia = system: MOLT-4 leukemia
T-47D breast = system: T-47D breast
UO-31 renal = system: UO-31 renal
HS 578T breast = system: HS 578T breast
SF-295 CNS = system: SF-295 CNS
HOP-62 NSCLC = system: HOP-62 NSCLC
NCI-H23 lung = system: NCI-H23 lung
HOP-92 NSCLC = system: HOP-92 NSCLC
ACHN renal = system: ACHN renal
OVCAR-3 ovarian = system: OVCAR-3 ovarian
OVCAR-5 ovarian = system: OVCAR-5 ovarian
EKVX NSCLC = system: EKVX NSCLC
BT-549 breast = system: BT-549 breast
HCT-15 colon = system: HCT-15 colon
A498 renal = system: A498 renal
IGROV1 ovarian = system: IGROV1 ovarian
HT29 colon = system: HT29 colon
OVCAR-8 ovarian = system: OVCAR-8 ovarian
SK-OV-3 ovarian = system: SK-OV-3 ovarian
UACC-62 melanoma = system: UACC-62 melanoma
SF-268 CNS = system: SF-268 CNS
KM12 colon = system: KM12 colon
HL-60(TB) leukemia = system: HL-60(TB) leukemia
UACC-257 melanoma = system: UACC-257 melanoma
OVCAR-4 ovarian = system: OVCAR-4 ovarian
LOX IMVI melanoma = system: LOX IMVI melanoma
RPMI-8226 leukemia = system: RPMI-8226 leukemia
NCI-H460 lung = system: NCI-H460 lung
SN12C renal = system: SN12C renal
A549 NSCLC = system: A549 NSCLC
SK-MEL-2 melanoma = system: SK-MEL-2 melanoma
M14 melanoma = system: M14 melanoma
NCI-H226 lung = system: NCI-H226 lung
CAKI-1 renal = system: CAKI-1 renal
DU-145 prostate = system: DU-145 prostate
RXF 393 renal = system: RXF 393 renal
PC-3 prostate = system: PC-3 prostate
SF-539 CNS = system: SF-539 CNS
HCT-116 colon = system: HCT-116 colon
MDA-MB-231 breast = system: MDA-MB-231 breast
SNB-19 CNS = system: SNB-19 CNS
SW-620 colon = system: SW-620 colon
K-562 leukemia = system: K-562 leukemia

Compound `Cc1cc(I)cc(CN(C)CCCN2CCOCC2)c1O` has a GI50 (786-0 renal) of 27.6 µM, a TGI (786-0 renal) of over 100 µM and a GI50 (SR leukemia) of 19.6 µM. The TGI (SR leukemia) was 48 µM, the GI50 (COLO 205 colon) was 14.1 µM and the TGI (COLO 205 colon) was 29 µM. The GI50 (SK-MEL-28 melanoma) was 17.4 µM, the TGI (SK-MEL-28 melanoma) was 32.3 µM and the GI50 (MDA-MB-435) was 26 µM. It also gave a TGI (MDA-MB-435) of over 100 µM, a GI50 (MCF7 breast) of 32.7 µM and a TGI (MCF7 breast) of over 100 µM. It also gave a GI50 (SNB-75 CNS) of 21 µM, a TGI (SNB-75 CNS) of 87.4 µM and a GI50 (SK-MEL-5 melanoma) of 15.5 µM. It also gave a TGI (SK-MEL-5 melanoma) of 28.9 µM, a GI50 (HCC-2998 colon) of 35.4 µM and a TGI (HCC-2998 colon) of over 100 µM. For the same compound, the GI50 (NCI/ADR-RES ovarian) was 67.5 µM, the TGI (NCI/ADR-RES ovarian) was over 100 µM and the GI50 (U251 CNS) was 36.3 µM. It also gave a TGI (U251 CNS) of over 100 µM, a GI50 (MALME-3M melanoma) of 16.2 µM and a TGI (MALME-3M melanoma) of 32.9 µM. It also gave a GI50 (TK-10 renal) of 45.6 µM, a TGI (TK-10 renal) of over 100 µM and a GI50 (MOLT-4 leukemia) of 30.2 µM. It also gave a TGI (MOLT-4 leukemia) of over 100 µM, a GI50 (T-47D breast) of 29.1 µM and a TGI (T-47D breast) of over 100 µM. It also gave a GI50 (UO-31 renal) of 22.1 µM, a TGI (UO-31 renal) of 94.4 µM and a GI50 (HS 578T breast) of 13.5 µM. It also gave a TGI (HS 578T breast) of over 100 µM, a GI50 (SF-295 CNS) of 25.1 µM and a TGI (SF-295 CNS) of 74.8 µM. The GI50 (HOP-62 NSCLC) was 38.6 µM, the TGI (HOP-62 NSCLC) was over 100 µM and the GI50 (NCI-H23 lung) was 72.3 µM. It also gave a TGI (NCI-H23 lung) of over 100 µM, a GI50 (HOP-92 NSCLC) of 15.7 µM and a TGI (HOP-92 NSCLC) of 98.2 µM. For the same compound, the GI50 (ACHN renal) was over 100 µM, the TGI (ACHN renal) was over 100 µM and the GI50 (OVCAR-3 ovarian) was over 100 µM. The TGI (OVCAR-3 ovarian) was over 100 µM, the GI50 (OVCAR-5 ovarian) was 45.3 µM and the TGI (OVCAR-5 ovarian) was over 100 µM. It also gave a GI50 (EKVX NSCLC) of 72.4 µM, a TGI (EKVX NSCLC) of over 100 µM and a GI50 (BT-549 breast) of 13.9 µM. For the same compound, the TGI (BT-549 breast) was 85.5 µM, the GI50 (HCT-15 colon) was 29 µM and the TGI (HCT-15 colon) was over 100 µM. The GI50 (A498 renal) was 19.1 µM, the TGI (A498 renal) was 48.6 µM and the GI50 (IGROV1 ovarian) was 20.7 µM. The TGI (IGROV1 ovarian) was 72.6 µM, the GI50 (HT29 colon) was 16.5 µM and the TGI (HT29 colon) was 33.6 µM. For the same compound, the GI50 (OVCAR-8 ovarian) was over 100 µM, the TGI (OVCAR-8 ovarian) was over 100 µM and the GI50 (SK-OV-3 ovarian) was 82.9 µM. For the same compound, the TGI (SK-OV-3 ovarian) was over 100 µM, the GI50 (UACC-62 melanoma) was 13.1 µM and the TGI (UACC-62 melanoma) was 30.5 µM. The GI50 (SF-268 CNS) was 38.3 µM, the TGI (SF-268 CNS) was over 100 µM and the GI50 (KM12 colon) was 29.6 µM. The TGI (KM12 colon) was over 100 µM, the GI50 (HL-60(TB) leukemia) was 27.7 µM and the TGI (HL-60(TB) leukemia) was 72 µM. The GI50 (UACC-257 melanoma) was 21.6 µM, the TGI (UACC-257 melanoma) was 44.8 µM and the GI50 (OVCAR-4 ovarian) was 63.2 µM. It also gave a TGI (OVCAR-4 ovarian) of over 100 µM, a GI50 (LOX IMVI melanoma) of 29.8 µM and a TGI (LOX IMVI melanoma) of over 100 µM. It also gave a GI50 (RPMI-8226 leukemia) of 17.8 µM, a TGI (RPMI-8226 leukemia) of 46 µM and a GI50 (NCI-H460 lung) of 35.4 µM. For the same compound, the TGI (NCI-H460 lung) was over 100 µM, the GI50 (SN12C renal) was over 100 µM and the TGI (SN12C renal) was over 100 µM. For the same compound, the GI50 (A549 NSCLC) was 59.4 µM, the TGI (A549 NSCLC) was over 100 µM and the GI50 (SK-MEL-2 melanoma) was 19.6 µM. For the same compound, the TGI (SK-MEL-2 melanoma) was 38.5 µM, the GI50 (M14 melanoma) was 16 µM and the TGI (M14 melanoma) was 32.3 µM. For the same compound, the GI50 (NCI-H226 lung) was 99.9 µM, the TGI (NCI-H226 lung) was over 100 µM and the GI50 (CAKI-1 renal) was 29.4 µM. For the same compound, the TGI (CAKI-1 renal) was over 100 µM, the GI50 (DU-145 prostate) was over 100 µM and the TGI (DU-145 prostate) was over 100 µM. The GI50 (RXF 393 renal) was 11.8 µM, the TGI (RXF 393 renal) was 38.2 µM and the GI50 (PC-3 prostate) was 42.9 µM. It also gave a TGI (PC-3 prostate) of over 100 µM, a GI50 (SF-539 CNS) of 16.7 µM and a TGI (SF-539 CNS) of 39.4 µM. It also gave a GI50 (HCT-116 colon) of 24 µM, a TGI (HCT-116 colon) of over 100 µM and a GI50 (MDA-MB-231 breast) of 39.7 µM. It also gave a TGI (MDA-MB-231 breast) of over 100 µM, a GI50 (SNB-19 CNS) of 67.7 µM and a TGI (SNB-19 CNS) of over 100 µM. For the same compound, the GI50 (SW-620 colon) was 33.5 µM, the TGI (SW-620 colon) was over 100 µM and the GI50 (K-562 leukemia) was 18 µM. The TGI (K-562 leukemia) was 39.5 µM.
